Experimental data as given in PMC10590756, “Glutarate regulates T cell metabolism and anti-tumour immunity” (Nature Metabolism, 2023).

Assays:
human CD8^+ T cells [1] = test: Glucose uptake assay; assay type: cell-based; conditions: 500 µM DEG, acute and chronic
Description: Glucose uptake was determined using a Glucose Uptake Assay Kit (catalogue no. J1341, Promega Corporation). The assay was performed according to the manufacturer’s instructions. Data were acquired on the FLUOstar Omega.

B16F10-OVA cancer cells = test: In vitro cytotoxicity of OT1 CD8^+ T cells; assay type: cell-based, mouse; conditions: T cells cultured 7 days with 500 µM DEG
Description: Ten thousand B16F10-OVA or SKOV3 cells were seeded per well in 96-well plates and cocultured for a minimum of 14 h with varying ratios of mouse CD8^+ OT1 or human CD8^+RQR8^+ HER2 CAR T cells, respectively. T cells had been treated with or without DEG 7 days before the assay. Wells were washed twice with PBS to remove T cells and the number of remaining target cells was determined by culturing with 10 µg ml^−1 resazurin (catalogue no. R7017, Sigma-Aldrich) and measuring the fluorescence signal in a plate reader. Cytotoxicity was calculated relative to wells with no T cells added. Ten thousand Raji cells were cocultured for a minimum of 14 h with CD19 CAR T cells previously activated for 7 days and cultured with or without DEG. Cytotoxicity was assessed by flow cytometry using the ratio of live Raji cells to CountBright Absolute Counting Beads (catalogue no. C36950, Thermo Fisher Scientific). To determine specific cytotoxicity, data were normalized to the cytotoxicity of the vector-controlled transduced CD8 T cells of the respective donor.

human CD8^+ T cells [2] = test: qPCR gene expression in CD8^+ T cells; assay type: cell-based; conditions: 500 µM DEG, 7 days
Description: Total RNA was extracted from isolated CD8^+ T cells (RNeasy Kit, QIAGEN); 300 ng of RNA were used for complementary DNA synthesis (First-Strand cDNA Synthesis Kit, Invitrogen). Quantitative PCR with reverse transcription (RT–qPCR) was performed with SYBR green (Roche) in a StepOnePlus system (Applied Biosystems). All kits were used according to the manufacturer’s instructions. Samples were run in technical duplicates. Primers were designed with NCBI primer blast and are listed in Supplementary Table 5.

[3] = biological target: T1, PDHE2 lipoate in human CD8^+ T cells (Homo sapiens, UniProt P10515); test: PDHE2 lipoate western blot; assay type: cell-based; conditions: 500 µM DEG, 24 h
T1 construct: We treated human CD8^+ T cells with DEG and observed reduced PDHE2 lipoate level; endogenous in cells; host or cells: primary human CD8+ T cells
Description: Lipoic acid western blotting was performed as above with the following alterations: blocking buffer and secondary antibody buffer (5% milk plus 1% fatty acid free bovine serum albumin (BSA) (catalogue no. BP9704100, Thermo Fisher Scientific) prepared in PBS plus 0.05% Tween-20); and primary antibody buffer (2% fatty acid free BSA prepared in PBS plus 0.05% Tween-20). Lipoic acid antibody was used at a concentration of 1:2,000 (catalogue no. 437695, Sigma-Aldrich). Data were analysed using the iBright Analysis Software v.4.0.1 or ImageJ.

human full-length KDM6A = biological target: T2, human full-length KDM6A (Homo sapiens, UniProt O15550); test: Cell-free KDM6A activity assay (^14CO2 release); assay type: biochemical
T2 construct: The human full-length HIF-P4H-1 and KDM6A enzymes were recombinantly produced using Sf21 insect cells; made in house; host or cells: Sf21 insect cells (baculovirus, pVL1393)
Text: The human full-length HIF-P4H-1 and KDM6A enzymes were recombinantly produced using Sf21 insect cells and the enzymes were purified with anti-FLAG M2 affinity gel as described previously[68],[69]. Briefly, the C terminus FLAG-tagged human HIF-P4H1-2 and KDM6A were generated using PCR and subcloned into pAcG3X and pVL1393 baculovirus expression vectors, respectively. The recombinant baculoviruses were generated by transducing the bacmid DNA into Spodoptera frugiperda Sf9 cells using BaculoGold DNA (HIF-P4H1-2, BD Biosciences) and BacMagic-3 DNA kit (for KDM6A, Novagen). Recombinant proteins were produced by infecting Sf21 insect cells with the corresponding amplified baculoviruses for 72 h at 27 °C. Cells were homogenized in a buffer containing 10 mM Tris, 150 mM NaCl, 100 mM glycine, 0.1% (v/v) Triton X-100, pH 7.8, and a protease inhibitor cocktail tablet without EDTA. The cell lysates were centrifuged at 21,000g for 30 min; the soluble fractions containing the FLAG-tagged proteins were affinity-purified using the anti-FLAG M2 affinity gel (Sigma-Aldrich). […] Protein concentration was measured with NanoDrop and proteins were analysed by SDS–PAGE followed by Coomassie brilliant blue staining. […] The IC50 value of the glutarate analogue was calculated from the inhibition saturation curves.

T2 sequence (O15550 whole entry): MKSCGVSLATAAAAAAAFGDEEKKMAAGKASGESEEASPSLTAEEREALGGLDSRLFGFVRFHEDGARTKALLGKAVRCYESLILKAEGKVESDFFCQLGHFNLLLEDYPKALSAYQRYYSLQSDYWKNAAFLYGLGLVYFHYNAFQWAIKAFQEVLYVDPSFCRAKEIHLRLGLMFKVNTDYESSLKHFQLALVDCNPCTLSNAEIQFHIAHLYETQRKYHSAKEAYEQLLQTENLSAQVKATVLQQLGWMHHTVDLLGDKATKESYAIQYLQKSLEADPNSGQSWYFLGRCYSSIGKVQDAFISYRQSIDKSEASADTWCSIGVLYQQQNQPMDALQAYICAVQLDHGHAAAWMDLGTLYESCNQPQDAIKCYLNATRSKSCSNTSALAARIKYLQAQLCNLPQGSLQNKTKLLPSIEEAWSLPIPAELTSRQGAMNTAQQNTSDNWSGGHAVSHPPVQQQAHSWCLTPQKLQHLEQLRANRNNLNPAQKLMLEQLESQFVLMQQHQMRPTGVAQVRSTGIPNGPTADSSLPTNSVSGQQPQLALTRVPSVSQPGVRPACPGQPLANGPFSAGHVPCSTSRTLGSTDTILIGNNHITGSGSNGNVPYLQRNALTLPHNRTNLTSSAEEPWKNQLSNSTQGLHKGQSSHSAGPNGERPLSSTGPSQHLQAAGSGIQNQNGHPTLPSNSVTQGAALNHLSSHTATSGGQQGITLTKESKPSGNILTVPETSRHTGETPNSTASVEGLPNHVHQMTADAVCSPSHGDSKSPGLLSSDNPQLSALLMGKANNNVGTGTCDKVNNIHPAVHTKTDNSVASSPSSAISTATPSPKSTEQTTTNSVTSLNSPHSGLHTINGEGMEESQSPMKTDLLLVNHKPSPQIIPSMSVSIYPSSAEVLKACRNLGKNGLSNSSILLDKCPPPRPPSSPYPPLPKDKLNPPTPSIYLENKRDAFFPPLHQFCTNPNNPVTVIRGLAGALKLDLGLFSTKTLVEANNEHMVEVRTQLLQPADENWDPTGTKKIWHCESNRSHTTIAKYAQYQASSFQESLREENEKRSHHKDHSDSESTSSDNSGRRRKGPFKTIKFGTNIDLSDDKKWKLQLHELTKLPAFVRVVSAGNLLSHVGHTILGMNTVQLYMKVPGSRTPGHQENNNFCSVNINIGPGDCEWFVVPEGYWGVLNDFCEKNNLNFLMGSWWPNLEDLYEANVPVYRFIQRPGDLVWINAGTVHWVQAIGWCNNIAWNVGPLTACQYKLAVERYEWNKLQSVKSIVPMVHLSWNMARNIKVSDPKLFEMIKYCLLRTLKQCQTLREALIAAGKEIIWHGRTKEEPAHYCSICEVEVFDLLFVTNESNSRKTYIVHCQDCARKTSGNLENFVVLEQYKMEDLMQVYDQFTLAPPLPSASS
T1 sequence (P10515 87-647): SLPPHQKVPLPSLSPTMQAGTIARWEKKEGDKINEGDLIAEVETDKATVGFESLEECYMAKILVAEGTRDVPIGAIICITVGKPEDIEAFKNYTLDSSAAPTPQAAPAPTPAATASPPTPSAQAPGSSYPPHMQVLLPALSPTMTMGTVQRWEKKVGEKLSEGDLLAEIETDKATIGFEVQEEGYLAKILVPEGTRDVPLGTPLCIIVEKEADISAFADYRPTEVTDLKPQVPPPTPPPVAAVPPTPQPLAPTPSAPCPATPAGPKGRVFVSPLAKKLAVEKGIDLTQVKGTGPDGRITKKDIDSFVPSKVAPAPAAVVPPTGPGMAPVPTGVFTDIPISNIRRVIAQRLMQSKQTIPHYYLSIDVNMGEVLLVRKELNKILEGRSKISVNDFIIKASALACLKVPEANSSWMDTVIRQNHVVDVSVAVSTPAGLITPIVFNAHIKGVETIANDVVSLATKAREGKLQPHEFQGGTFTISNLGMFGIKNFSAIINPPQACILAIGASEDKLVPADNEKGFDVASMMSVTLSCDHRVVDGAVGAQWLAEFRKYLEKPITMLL

For `CCOC(=O)CCCC(=O)OCC` [DEG, Diethyl glutarate], the “rate of glucose uptake” value (human CD8^+ T cells [1]) was “no changes”, the “killing of B16F10-OVA cancer cells by OT1 CD8^+ T cells” value (B16F10-OVA cancer cells) was “more proficient at killing” and the “carnitine palmitoyltransferase 1A (CPT1A) gene expression” value (human CD8^+ T cells [2]) was “increased levels”. For the same molecule, the “expression of HIF target genes” value (human CD8^+ T cells [2]) was “increased expression”, the “fatty acid binding protein (FABP) gene expression” value (human CD8^+ T cells [2]) was “increased levels” and the “fatty acid synthase (FASN) gene expression” value (human CD8^+ T cells [2]) was “increased levels”. The “mRNA levels of PDHK1” value (human CD8^+ T cells [2]) was “increased” and the PDHE2 lipoate level [3] was “reduced”.

Work on `O=C(O)CCCC(=O)O` [glutarate, glutaric acid] yielded an IC50 (human full-length KDM6A) of 600 µM.
